In patent US20220098191A1 (priority 2019, published 2022):
Where “and” joins values, the source holds several entries; their conditions need not be identical. Identical values can stand only once.

Legend:
JVM2 (Lymphoma) = experiment: MTT in vitro cytotoxicity, 72 hour incubation; type: cell-based; settings: Homo sapiens, JVM-2, MTT assay, JVM2 cells
Protocol: (§1) The in vitro cytotoxicity of a selection of compounds was determined in a panel of cell lines using the standard MTT assay for a 72 hour incubation period (Table 1).
(§2) Tumor cell lines were maintained in RPMI1640 medium supplemented with 10% heat-inactivated fetal bovine serum, 2 mM L-glutamine and 1 mM sodium pyruvate. 1800 cells per well were seeded in a volume of 180 μl in a 96-well flat bottom polystyrene plate. The cells were allowed to adhere overnight at 37° C. in a CO2 incubator. Ligands were initially formulated in DMSO, and stocks stored at −80° C. They were then further formulated at lox concentration in RPMI1640 medium. 20 μl of diluted samples were added into each treatment well. On each plate, blank wells with no cells, and untreated wells containing cells, were included. Plates were then cultured at 37° C. in a CO2 incubator for 72 hrs. Cytotoxicity was evaluated using a tetrazolium salt-based assay, the MTT assay. After 72 hours, the supernatant was removed from each well and 200 μl of a sterile filtered 500 μg/ml MTT solution in water added to each well. The plates were then incubated at 37° C. in a CO2 incubator for 4 hrs. The supernatant was then removed and the formazan crystals formed solubilized by adding 150 μl of DMSO to each well. The plate was then read on a plate reader at 540 nm, and percentage cell survival calculated as follows: ((mean absorbance treated wells at concentration×−mean absorbance blank wells)÷(mean absorbance untreated wells at concentration×−mean absorbance blank wells))×100. Data were plotted as concentration in nM vs. % cell survival in Microsoft Excel, and IC50 values (concentration where cell survival is reduced by a half) were determined from the graph.

Jurkat (Leukaemia) = experiment: MTT in vitro cytotoxicity, 72 hour incubation; type: cell-based; settings: Homo sapiens, MTT assay, Jurkat cells
Protocol: as §1, §2

RAJI (Lymphoma) = experiment: MTT in vitro cytotoxicity, 72 hour incubation; type: cell-based; settings: Homo sapiens, MTT assay, RAJI cells
Protocol: as §1, §2

[1] = Hydrophobicity investigation of free payloads by UPLC (hydrophobicity model); type: physicochemical; settings: for Retention Time (min) seco form / Retention Time (min) spiro form: single runs 1-3 (triplicate), 0.1% TFA water/acetonitrile gradient; for Retention Time (min) seco form, Average: Average of runs, D only in seco form, the others observable as single species
Protocol: Both mobile phases were filtered through 0.22 μm filters and degassed by sonication under argon. Caffeine (Merck, UPLC grade) was employed a standard. Blank solvent samples (i.e., DMSO) were used during sample runs to confirm lack of carryover between injections and to monitor column performance.
UPLC-MS analysis was performed on a Waters Acquity H-Class Ultra-Performance Liquid Chromatography (UPLC) System equipped with an Acquity UPLC BEH, […] 50×2.10 mm (Waters, UK) column and a photodiode array detector […], using Waters MassLynx software. The gradient system used for LC analysis consisted of 0.1% trifluoroacetic acid (TFA) in water as Solvent A, and 0.1% trifluoroacetic acid (TFA) in acetonitrile as Solvent B. TFA was purchased from Merck (UK), and diluted to the required concentration with UPLC grade water and acetonitrile for Solvent A and Solvent B, respectively. TFA was added to ensure acidic conditions throughout the analysis. A flow rate of 0.4 mL/min was used, and the detection wavelength was 254 nm. Mass spectrometry data were collected using a Waters SQ Detector 2 coupled to a Waters Acquity H Class UPLC and a Photo Diode Array Detector (ACQ-PDA). The Waters SQ Detector 2 parameters were set to: Capillary (kV), 3.00; Cone (V), 30; De-solvation Temperature (° C.), 600; Cone flow rate (L/h), 50; De-solvation flow rate (L/h), 600.
Gradient method used: from 95% A/5% B to 20% B over 5 min. Then from 20% B to 60% B over 35 min, followed by from 60% B to 85% B over 10 min. It was further changed from 85% B to 90% B over 5 min and kept for a further 5 min. Finally, from 90% B to 95% B over 2.5 min, and then to 20% B over 2.5 min. 10 μL was split via a zero-dead volume T-piece which passed into the mass spectrometer.
Compounds were provided in powder form and were dissolved in DMSO to achieve 5 mM stock solution. This solution was then diluted to 500 μM with 50% acetonitrile/50% water.
A number of commercially available ADC payloads and internal reference compounds were also incorporated into the analysis, and their structures are presented in Table 3.

Compound | IC50 (JVM2 (Lymphoma)) [nM] | IC50 (Jurkat (Leukaemia)) [nM] | IC50 (RAJI (Lymphoma)) [nM] | Retention Time (min) seco form [1] | Retention Time (min) spiro form [1] | Retention Time (min) seco form, Average [1] [min] | enhanced hydrophilicity (retention time) compared to the unsubstituted compound (B) ([1]; carbamate pro-drug D versus B)
CNS(=O)(=O)c1ccc(C2=CCN3C(=O)c4cc(OC)c(OCCOCCC(=O)N5C[C@@H](CCl)c6c5cc(O)c5ccccc65)cc4N=C[C@@H]3C2)cc1 [Compound 76, 4-((S)-3-(2-(3-((S)-1-(Chloromethyl)-5-hydroxy-1,2-dihydro-3H-benzo[e]indol-3-yl)-3-oxopropoxy)ethoxy)-2-methoxy-12-oxo-6a,7,10,12-tetrahydrobenzo[e]pyrido[1,2-a][1,4]diazepin-8-yl)-N-methylbenzenesulfonamide] | 0.0138 | 0.0095 | 0.0172 | 20.14 min | 13.29 min and 13.28 min | – | –
CCc1c2c(nc3ccc(O)cc13)-c1cc3c(c(=O)n1C2)COC(=O)[C@]3(O)CC [SN38, reference compound] | – | – | – | – | – | 7.13 | –
COc1ccc(C2=CN3C(=O)c4cc(OC)c(OCCCOc5cc6c(cc5OC)C(=O)N5C=C(c7ccc(N)cc7)C[C@H]5C=N6)cc4N=C[C@@H]3C2)cc1 [SGD1882, reference compound] | – | – | – | – | – | 12.55 | –
CC[C@H](C)C[C@H](OC)[C@@H](C(=O)N1CCC[C@H]1[C@@H](CC(=O)N[C@H](C)[C@@H](O)c1ccccc1)OC)N(C)C(=O)[C@@H](NC(=O)[C@@H](NC)C(C)C)C(C)C [MMAE, reference compound] | – | – | – | – | – | 12.04 | –
COc1cc2c(cc1OCCCCCC(=O)N1C[C@@H](CCl)c3c1cc(O)c1ccccc31)N=C[C@@H]1CCCCN1C2=O [A, reference compound] | – | – | – | 22.55 min and 22.56 min | 14.85 min and 14.83 min and 14.84 min | – | –
COc1cc2c(cc1OC[C@@H](O)CC(=O)N1C[C@@H](CCl)c3c1cc(O)c1ccccc31)N=C[C@@H]1CC(c3ccsc3)=CCN1C2=O [Compound 108, (S)-3-((S)-4-((S)-1-(Chloromethyl)-5-hydroxy-1,2-dihydro-3H-benzo[e]indol-3-yl)-2-hydroxy-4-oxobutoxy)-2-methoxy-8-(thiophen-3-yl)-7,10-dihydrobenzo[e]pyrido[1,2-a][1,4]diazepin-12(6aH)-one] | 0.0047 | 0.014 | 0.01 | 22.54 min and 22.53 min | 15.71 min and 15.69 min and 15.70 min | – | –
COc1cc2c(cc1OCCCCCC(=O)N1C[C@@H](CCl)c3c1cc(O)c1ccccc31)N=C[C@@H]1CCCN1C2=O [C, reference compound] | – | – | – | 20.16 min and 20.15 min | 12.49 min and 12.48 min and 12.45 min | – | –
COc1cc2c(cc1OCCCC(=O)N1C[C@@H](CCl)c3c1cc(O)c1ccccc31)N=C[C@@H]1CC(c3ccsc3)=CCN1C2=O [Compound 100, (S)-3-(4-((S)-1-(Chloromethyl)-5-hydroxy-1,2-dihydro-3H-benzo[e]indol-3-yl)-4-oxobutoxy)-2-methoxy-8-(thiophen-3-yl)-7,10-dihydrobenzo[e]pyrido[1,2-a][1,4]diazepin-12(6aH)-one] | 0.001 | – | – | 25.24 min and 25.23 min | 17.94 min and 17.89 min and 17.93 min | – | –
COc1cc2c(cc1OCCCCCC(=O)N1C[C@@H](CCl)c3c1cc(O)c1ccccc31)N=C[C@@H]1CC(c3ccsc3)=CCN1C2=O [Compound 96, (S)-3-((6-((S)-1-(Chloromethyl)-5-hydroxy-1,2-dihydro-3H-benzo[e]indol-3-yl)-6-oxohexyl)oxy)-2-methoxy-8-(thiophen-3-yl)-7,10-dihydrobenzo[e]pyrido[1,2-a][1,4]diazepin-12(6aH)-one] | – | – | 0.0014 | 28.04 min and 28.08 min and 28.06 min | 21.00 min and 21.02 min | – | –
COc1cc2cc(c1Cl)N(C)C(=O)C[C@](C)(OC(=O)[C@@H](C)N(C)C(=O)CCSC)[C@]1(C)O[C@H]1[C@H](C)[C@@H]1C[C@@](O)(NC(=O)O1)[C@H](OC)/C=C/C=C(\C)C2 [DM1, reference compound] | – | – | – | – | – | 21.24 | –
CNS(=O)(=O)c1ccc(C2=CCN3C(=O)c4cc(OC)c(OC[C@@H](O)CC(=O)N5C[C@@H](CCl)c6c5cc(O)c5ccccc65)cc4N=C[C@@H]3C2)cc1 [Compound 88, 4-((S)-3-((S)-4-((S)-1-(Chloromethyl)-5-hydroxy-1,2-dihydro-3H-benzo[e]indol-3-yl)-2-hydroxy-4-oxobutoxy)-2-methoxy-12-oxo-6a,7,10,12-tetrahydrobenzo[e]pyrido[1,2-a][1,4]diazepin-8-yl)-N-methylbenzenesulfonamide] | 0.49 | 0.97 | 0.954 | 18.73 min and 18.70 min | 12.47 min and 12.45 min | – | –
COc1cc2c(cc1OCc1cc(N)cc(COc3cc4c(cc3OC)C(=O)N3c5ccccc5C[C@H]3CN4)c1)N=C[C@@H]1Cc3ccccc3N1C2=O [DGN549, reference compound] | – | – | – | – | – | 16.60 | –
COc1cc2c(cc1OCCOCCC(=O)N1C[C@@H](CCl)c3c1cc(O)c1ccccc31)N=C[C@@H]1CC(c3ccsc3)=CCN1C2=O [Compound 104, (S)-3-(2-(3-((S)-1-(Chloromethyl)-5-hydroxy-1,2-dihydro-3H-benzo[e]indol-3-yl)-3-oxopropoxy)ethoxy)-2-methoxy-8-(thiophen-3-yl)-7,10-dihydrobenzo[e]pyrido[1,2-a][1,4]diazepin-12(6aH)-one] | 0.0018 | 0.0095 | 0.0025 | 24.10 min and 24.09 min | 16.90 min and 16.93 min and 16.91 min | – | –
CNS(=O)(=O)c1ccc(C2=CCN3C(=O)c4cc(OC)c(OC[C@H](O)CC(=O)N5C[C@@H](CCl)c6c5cc(O)c5ccccc65)cc4N=C[C@@H]3C2)cc1 [Compound 92, 4-((S)-3-((R)-4-((S)-1-(Chloromethyl)-5-hydroxy-1,2-dihydro-3H-benzo[e]indol-3-yl)-2-hydroxy-4-oxobutoxy)-2-methoxy-12-oxo-6a,7,10,12-tetrahydrobenzo[e]pyrido[1,2-a][1,4]diazepin-8-yl)-N-methylbenzenesulfonamide] | 0.12 | 0.55 | 0.41 | 18.82 min and 18.84 min | 12.16 min and 12.18 min | – | –
COc1cc2c(cc1OCc1cccc(CC(=O)N3C[C@@H](CCl)c4c3cc(OC(=O)N3CCN(C)CC3)c3ccccc43)c1)N=C[C@@H]1CCCCN1C2=O [D, reference compound] | – | – | – | – | – | 17.03 | approximately 10 mins
COc1cc2c(cc1OCCCCCOc1cc3c(cc1OC)C(=O)N1C=C(C)C[C@H]1C=N3)C=C[C@@H]1CC(C)=CN1C2=O [SG3199, reference compound] | – | – | – | – | – | 12.02 | –
COc1cc2c(cc1OCc1cccc(CC(=O)N3C[C@@H](CCl)c4c3cc(O)c3ccccc43)c1)N=C[C@@H]1CCCCN1C2=O [B, reference compound] | – | – | – | 23.64 min and 23.65 min | 16.10 min and 16.12 min and 16.09 min | – | –
